Converted amounts (≈) assume the structure as drawn.
Experiments:
Assay in all cases: In vitro antibacterial evaluation: minimum inhibitory concentration (MIC), broth dilution method
Assay type in all cases: cell-based
[1] = test system: Enterococcus sp.; conditions: 18 hours at 35° C.
Method in brief: (§1)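 MIC read as lowest drug level preventing visible growth. Organisms at 5×10^5 CFU/mL were exposed to a 64-0.06 μg/mL dilution series in Muller-Hinton II […] following NCCLS broth dilution standard M7-A2.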

[2] = test system: Escherichia coli; conditions: 18 hours at 35° C.
Method in brief: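 NCCLS M7-A2 broth dilution with Mueller-Hinton II, testing 64-0.06 μg/mL antibiotic against 5×10^5 CFU/mL inocula. Test strains include recent methicillin-, penicillin- or vancomycin-resistant clinical isolates. MIC is the lowest concentration preventing growth.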

[3] = test system: Staphylococcus sp.
Method in brief: as §1

[4] = test system: Streptococcus sp.; conditions: 18 hours at 35° C.
Method in brief: as §1

[5] = Enterococcus faecalis (ATCC 29212)
[6] = Enterococcus faecalis (GC 2242)
[7] = Enterococcus faecalis (GC 2691)
[8] = Enterococcus faecalis (GC 3059)
[9] = Enterococcus faecalis (GC 4552)
[10] = Enterococcus faecalis (GC 4553)
[11] = Enterococcus faecalis (GC 4554)
[12] = Enterococcus faecalis (GC 6189)
[13] = broth dilution, inoculum 5×10^5 CFU/mL
[14] = Streptococcus agalactiae (GC 4564)
[15] = Streptococcus pneumoniae (ATCC 6301)
[16] = Streptococcus pneumoniae (GC 1894)
[17] = Streptococcus pneumoniae (GC 4565)
[18] = Streptococcus pyogenes (GC 4563)

## CC(c1ccccc1)C1NC(=O)CNC(=O)C(CO)NC(=O)C(C(O)C2CNC(=N)N2C2OC(CO)C(O)C(O)C2O)NC(=O)C(C(O)C2CNC(=N)N2)NC(=O)C(Cc2ccc(OC3OC(CO)C(OC4OC5COC6(CCCCC6C)OC5C(O)C4O)C(O)C3O)cc2)NC1=O (stereo not drawn) [Example 204, Cyclo[glycyl-β-methylphenylalanyl-O-[4-O-[4,6-O-(2-methylcyclohexylidene)hexopyranosyl]hexopyranosyl]tyrosyl-3-(2-iminoimidazolidin-4-yl)seryl-3-(3-hexopyranosyl-2-iminoimidazolidin-4-yl)serylseryl]]
[1]; Enterococcus avium (GC 4558)
  MIC Enterococcus avium (GC 4558): 16 µg/mL (≈ 11.5 µM)
[1]; [5]
  MIC Enterococcus faecalis (ATCC 29212): 16 µg/mL (≈ 11.5 µM)
[1]; [6]
  MIC Enterococcus faecalis (GC 2242): 16 µg/mL (≈ 11.5 µM)
[1]; [7]
  MIC Enterococcus faecalis (GC 2691): 16 µg/mL (≈ 11.5 µM)
[1]; [8]
  MIC Enterococcus faecalis (GC 3059): 16 µg/mL (≈ 11.5 µM)
[1]; [9]
  MIC Enterococcus faecalis (GC 4552): 16 µg/mL (≈ 11.5 µM)
[1]; [10]
  MIC Enterococcus faecalis (GC 4553): 16 µg/mL (≈ 11.5 µM)
[1]; [11]
  MIC Enterococcus faecalis (GC 4554): 16 µg/mL (≈ 11.5 µM)
[1]; [12]
  MIC Enterococcus faecalis (GC 6189): 16 µg/mL (≈ 11.5 µM)
[1]; Enterococcus faecium (GC 2243)
  MIC Enterococcus faecium (GC 2243): 16 µg/mL (≈ 11.5 µM)
[1]; Enterococcus faecium (GC 4556)
  MIC Enterococcus faecium (GC 4556): 16 µg/mL (≈ 11.5 µM)
[1]; Enterococcus faecium (GC 4557)
  MIC Enterococcus faecium (GC 4557): 8 µg/mL (≈ 5.76 µM)
[1]; [13]
  MIC Enterococcus avium (GC 4558): 16 µg/mL (≈ 11.5 µM)
  MIC Enterococcus faecalis (ATCC 29212): 16 µg/mL (≈ 11.5 µM)
  MIC Enterococcus faecalis (GC 2242): 16 µg/mL (≈ 11.5 µM)
  MIC Enterococcus faecalis (GC 2691): 16 µg/mL (≈ 11.5 µM)
  MIC Enterococcus faecalis (GC 3059): 16 µg/mL (≈ 11.5 µM)
  MIC Enterococcus faecalis (GC 4552): 16 µg/mL (≈ 11.5 µM)
  MIC Enterococcus faecalis (GC 4553): 16 µg/mL (≈ 11.5 µM)
  MIC Enterococcus faecalis (GC 4554): 16 µg/mL (≈ 11.5 µM)
  MIC Enterococcus faecalis (GC 6189): 16 µg/mL (≈ 11.5 µM)
  MIC Enterococcus faecium (GC 2243): 16 µg/mL (≈ 11.5 µM)
  MIC Enterococcus faecium (GC 4556): 16 µg/mL (≈ 11.5 µM)
  MIC Enterococcus faecium (GC 4557): 8 µg/mL (≈ 5.76 µM)
[2]
  MIC Escherichia coli (GC 4560): 4 µg/mL (≈ 2.88 µM)
[3]; strain ATCC 29213
  MIC Staphylococcus aureus (ATCC 29213): 4 µg/mL (≈ 2.88 µM)
[3]; strain GC 1131
  MIC Staphylococcus aureus (GC 1131): 8 µg/mL (≈ 5.76 µM)
[3]; strain GC 3051
  MIC Staphylococcus aureus (GC 3051): 4 µg/mL (≈ 2.88 µM)
[3]; strain GC 3053
  MIC Staphylococcus aureus (GC 3053): 8 µg/mL (≈ 5.76 µM)
[3]; strain GC 4541
  MIC Staphylococcus aureus (GC 4541): 4 µg/mL (≈ 2.88 µM)
[3]; strain GC 4542
  MIC Staphylococcus aureus (GC 4542): 4 µg/mL (≈ 2.88 µM)
[3]; strain GC 4543
  MIC Staphylococcus aureus-SMITH (GC 4543): 4 µg/mL (≈ 2.88 µM)
[3]; strain GC 4544
  MIC Staphylococcus aureus (GC 4544): 8 µg/mL (≈ 5.76 µM)
[3]; strain GC 4545
  MIC Staphylococcus aureus (GC 4545): 4 µg/mL (≈ 2.88 µM)
[3]; strain GC 4546
  MIC Staphylococcus haemolyticus (GC 4546): 2 µg/mL (≈ 1.44 µM)
[3]; strain GC 4547
  MIC Coagulase Negative Staphylococcus (GC 4547): 4 µg/mL (≈ 2.88 µM)
[3]; strain GC 4548
  MIC Coagulase Negative Staphylococcus (GC 4548): 4 µg/mL (≈ 2.88 µM)
[3]; strain GC 4549
  MIC Coagulase Negative Staphylococcus (GC 4549): 2 µg/mL (≈ 1.44 µM)
[3]; strain GC 4551
  MIC Coagulase Negative Staphylococcus (GC 4551): 4 µg/mL (≈ 2.88 µM)
[4]; [14]
  MIC Streptococcus agalactiae (GC 4564): 1 µg/mL (≈ 0.72 µM)
[4]; [15]
  MIC Streptococcus pneumoniae (ATCC 6301): 0.5 µg/mL (≈ 0.36 µM)
[4]; [16]
  MIC Streptococcus pneumoniae (GC 1894): 0.25 µg/mL (≈ 0.18 µM)
[4]; [17]
  MIC Streptococcus pneumoniae (GC 4565): 0.5 µg/mL (≈ 0.36 µM)
[4]; [18]
  MIC Streptococcus pyogenes (GC 4563): 0.5 µg/mL (≈ 0.36 µM)
[4]; [13]
  MIC Streptococcus agalactiae (GC 4564): 1 µg/mL (≈ 0.72 µM)
  MIC Streptococcus pneumoniae (ATCC 6301): 0.5 µg/mL (≈ 0.36 µM)
  MIC Streptococcus pneumoniae (GC 1894): 0.25 µg/mL (≈ 0.18 µM)
  MIC Streptococcus pneumoniae (GC 4565): 0.5 µg/mL (≈ 0.36 µM)
  MIC Streptococcus pyogenes (GC 4563): 0.5 µg/mL (≈ 0.36 µM)

## CC(c1ccccc1)C1NC(=O)CNC(=O)C(CO)NC(=O)C(C(O)C2CNC(=N)N2C2OC(CO)C(O)C(O)C2O)NC(=O)C(C(O)C2CNC(=N)N2)NC(=O)C(Cc2ccc(OC3OC(CO)C(OC4OC(COCC=Cc5ccc(N(C)C)cc5)C(O)C(O)C4O)C(O)C3O)cc2)NC1=O (centres unmarked) [Example 243]
[1]; Enterococcus avium (GC 4558)
  MIC Enterococcus avium (GC 4558): 32 µg/mL (≈ 22 µM)
[1]; [5]
  MIC Enterococcus faecalis (ATCC 29212): >64 µg/mL
[1]; [6]
  MIC Enterococcus faecalis (GC 2242): 64 µg/mL (≈ 44 µM)
[1]; [7]
  MIC Enterococcus faecalis (GC 2691): >64 µg/mL
[1]; [8]
  MIC Enterococcus faecalis (GC 3059): >64 µg/mL
[1]; [9]
  MIC Enterococcus faecalis (GC 4552): >64 µg/mL
[1]; [10]
  MIC Enterococcus faecalis (GC 4553): 64 µg/mL (≈ 44 µM)
[1]; [11]
  MIC Enterococcus faecalis (GC 4554): >64 µg/mL
[1]; [12]
  MIC Enterococcus faecalis (GC 6189): 64 µg/mL (≈ 44 µM)
[1]; Enterococcus faecium (GC 2243)
  MIC Enterococcus faecium (GC 2243): 64 µg/mL (≈ 44 µM)
[1]; Enterococcus faecium (GC 4556)
  MIC Enterococcus faecium (GC 4556): >64 µg/mL
[1]; Enterococcus faecium (GC 4557)
  MIC Enterococcus faecium (GC 4557): 32 µg/mL (≈ 22 µM)
[1]; [13]
  MIC Enterococcus faecalis (GC 2242): 64 µg/mL (≈ 44 µM)
  MIC Enterococcus faecalis (GC 2691): >64 µg/mL
  MIC Enterococcus faecalis (GC 3059): >64 µg/mL
[2]; Escherichia coli (ATCC 25922)
  MIC Escherichia coli (ATCC 25922): >64 µg/mL
[2]; Escherichia coli (GC 4559)
  MIC Escherichia coli (GC 4559): >64 µg/mL
[2]
  MIC Escherichia coli (GC 4560): 64 µg/mL (≈ 44 µM)
[3]; Coagulase Negative Staphylococcus (GC 4547), 18 hours at 35° C.
  MIC Coagulase Negative Staphylococcus (GC 4547): 64 µg/mL (≈ 44 µM)
[3]; Coagulase Negative Staphylococcus (GC 4548), 18 hours at 35° C.
  MIC Coagulase Negative Staphylococcus (GC 4548): 32 µg/mL (≈ 22 µM)
[3]; Coagulase Negative Staphylococcus (GC 4549), 18 hours at 35° C.
  MIC Coagulase Negative Staphylococcus (GC 4549): 32 µg/mL (≈ 22 µM)
[3]; Coagulase Negative Staphylococcus (GC 4551), 18 hours at 35° C.
  MIC Coagulase Negative Staphylococcus (GC 4551): 64 µg/mL (≈ 44 µM)
[3]; Coagulase Negative Staphylococcus (GC 6257), 18 hours at 35° C.
  MIC Coagulase Negative Staphylococcus (GC 6257): 32 µg/mL (≈ 22 µM)
[3]; Staphylococcus aureus (ATCC 29213), 18 hours at 35° C.
  MIC Staphylococcus aureus (ATCC 29213): 64 µg/mL (≈ 44 µM)
[3]; Staphylococcus aureus (GC 1131), 18 hours at 35° C.
  MIC Staphylococcus aureus (GC 1131): 64 µg/mL (≈ 44 µM)
[3]; Staphylococcus aureus (GC 3051), 18 hours at 35° C.
  MIC Staphylococcus aureus (GC 3051): 64 µg/mL (≈ 44 µM)
[3]; Staphylococcus aureus (GC 3053), 18 hours at 35° C.
  MIC Staphylococcus aureus (GC 3053): 64 µg/mL (≈ 44 µM)
[3]; Staphylococcus aureus (GC 4541), 18 hours at 35° C.
  MIC Staphylococcus aureus (GC 4541): 64 µg/mL (≈ 44 µM)
[3]; Staphylococcus aureus (GC 4542), 18 hours at 35° C.
  MIC Staphylococcus aureus (GC 4542): 64 µg/mL (≈ 44 µM)
[3]; Staphylococcus aureus (GC 4544), 18 hours at 35° C.
  MIC Staphylococcus aureus (GC 4544): 64 µg/mL (≈ 44 µM)
[3]; Staphylococcus aureus (GC 4545), 18 hours at 35° C.
  MIC Staphylococcus aureus (GC 4545): 64 µg/mL (≈ 44 µM)
[3]; Staphylococcus aureus-SMITH (GC 4543), 18 hours at 35° C.
  MIC Staphylococcus aureus-SMITH (GC 4543): 64 µg/mL (≈ 44 µM)
[3]; Staphylococcus haemolyticus (GC 4546), 18 hours at 35° C.
  MIC Staphylococcus haemolyticus (GC 4546): 64 µg/mL (≈ 44 µM)
[4]; [14]
  MIC Streptococcus agalactiae (GC 4564): 32 µg/mL (≈ 22 µM)
[4]; [15]
  MIC Streptococcus pneumoniae (ATCC 6301): 32 µg/mL (≈ 22 µM)
[4]; [16]
  MIC Streptococcus pneumoniae (GC 1894): 8 µg/mL (≈ 5.5 µM)
[4]; [17]
  MIC Streptococcus pneumoniae (GC 4565): 16 µg/mL (≈ 11 µM)
[4]; [18]
  MIC Streptococcus pyogenes (GC 4563): 32 µg/mL (≈ 22 µM)
[4]; [13]
  MIC Streptococcus agalactiae (GC 4564): 32 µg/mL (≈ 22 µM)
  MIC Streptococcus pneumoniae (ATCC 6301): 32 µg/mL (≈ 22 µM)
  MIC Streptococcus pneumoniae (GC 1894): 8 µg/mL (≈ 5.5 µM)
  MIC Streptococcus pneumoniae (GC 4565): 16 µg/mL (≈ 11 µM)
  MIC Streptococcus pyogenes (GC 4563): 32 µg/mL (≈ 22 µM)
